Results reported in ChEMBL document CHEMBL1131533, “Development of a three-dimensional CysLT1 (LTD4) antagonist model with an incorporated amino acid residue from the receptor” (J Med Chem, 1998).

Target: T1, Cysteinyl leukotriene receptor 1 (Cavia porcellus, UniProt Q2NNR5)
T1 sequence (Q2NNR5 whole entry): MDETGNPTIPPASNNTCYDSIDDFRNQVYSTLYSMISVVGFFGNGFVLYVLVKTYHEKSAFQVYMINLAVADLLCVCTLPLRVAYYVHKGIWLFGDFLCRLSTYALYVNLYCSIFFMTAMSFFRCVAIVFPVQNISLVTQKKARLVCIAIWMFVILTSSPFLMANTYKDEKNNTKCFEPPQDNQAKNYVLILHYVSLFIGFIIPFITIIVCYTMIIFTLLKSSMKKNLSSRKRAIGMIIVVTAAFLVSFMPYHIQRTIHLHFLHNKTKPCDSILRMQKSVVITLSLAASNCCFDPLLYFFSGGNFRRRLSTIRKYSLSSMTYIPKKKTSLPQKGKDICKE
Experiment: Binding affinity towards Cysteinyl leukotriene D4 receptor (cysLT1) was measured by the displacement of [3H]LTD4 radioligand

| Ki [nM] | IC50 [nM] | Compound |
| --- | --- | --- |
| 6.4 |  | CCC(CC)(CC(=O)Nc1cccc(/C=C/c2nc(C3CCC3)cs2)c1)C(=O)O |
|  | 17 | O=C(O)c1cccc2c(=O)cc(-c3cccc(/C=C/c4ccc5ccccc5n4)c3)oc12 |
| 1.1 |  | O=C(Nc1cccc2c(=O)cc(-c3nn[nH]n3)oc12)c1ccc(OCc2ccc3ccccc3n2)cc1 |
| 3 |  | O=c1cc(-c2nnn[nH]2)oc2cc(OCc3cccc(OCc4ccc5ccccc5n4)c3)ccc12 |
| 2.5 |  | O=c1cc(-c2nnn[nH]2)oc2cc(/C=C/c3cccc(OCc4ccc5ccccc5n4)c3)ccc12 |
